How the values were obtained:
293 cells = assay: SEAP assay: iMC (tandem FKBP) scaffold plus FRBL2-Caspase-9; assay type: cell-based; details: tandem FKBPs (iMC) present
Protocol: FIGS. 16A and 16B are line graphs showing that tandem FKBP scaffold mediates FRBL2. Caspase activation in the presence of rapalogs. FIG. 16A. HEK-293 cells were transfected with 1 μg each of SRα-SEAP reporter plasmid, Δmyr.iMC.2A-anti-CD19.CAR.CD3ζ (pBP0608), and FRBL2. Caspase-9 (pBP0467). […] After ON incubation, cell supernatants were assayed for SEAP activity, as previously described. FIG. 16B. Similar to the experiment described in (FIG. 16A), except that cells were transfected with a membrane-localized (myristoylated) iMC.2A-CD19.CAR.CD3ζ (pBP0609), instead of non-myristoylated Δmyr.iMC.2A-CD19.CAR.CD3ζ (pBP0608).
In a second test for rapalog-mediated scaffold-based activation of Caspase-9, 293 cells were transiently transfected with SRα-SEAP reporter plasmid, plus myristoylated or non-myristoylated inducible iMC co-expressed with 1st generation anti-CD19 CAR, plus FRBL2-fused Caspase-9 (plasmid pBP0467) (FIG. 16).

293T cells = assay: SeAP reporter assay: FRBL-Caspase9 plus FKBPv12-Caspase9 heterodimerization; assay type: cell-based; details: FRBL-Caspase 9 plus FKBPV12-Caspase 9
Protocol: HEK 293T cells (5×10^5) were seeded on a 100-mm tissue culture dish in 10 mL DMEM4500, supplemented with glutamine, penicillin/streptomycin and 10% fetal calf serum. After 16-30 hours incubation, cells were transfected using Novagen's GeneJuice® protocol. Briefly, for each transfection, 0.5 mL OptiMEM was pipetted into a 1.5-mL microcentrifuge tube and 15 μL GeneJuice reagent added followed by 5 sec. vortexing. Samples were rested 5 minutes to settle the GeneJuice suspension. DNA (5 μg total) was added to each tube and mixed by pipetting up and down four times. Samples were allowed to rest for 5 minutes for GeneJuice-DNA complex formation and the suspension added dropwise to one dish of 293T cells. […]
24 hours after drug stimulation, 96-well plates were wrapped to prevent evaporation and incubated at 65° C. for 2 hours to inactivate endogenous and serum phosphatases while the heat-stable SeAP reporter remains (1, 4, 12). […] Phosphatase activity was measured by fluorescence with excitation at 355 nm and emission at 460 nm. […]
FIG. 37—Drug induced programmed cell death by homodimerization or heterodimerization of tagged caspase 9. […] Reporter activity is expressed as a percentage of the average of 8 control wells containing no drug. […]
FIG. 38—Rapalog-induced cell death switch. […] Reporter activity is expressed as a percentage of the average of 8 wells containing no drug. […]

COC1CC(CC(C)C2CC(=O)C(C)C=C(C)C(O)C(OC)C(=O)C(C)CC(C)C=CC=CC=C(C)C(OC(C)C)CC3CCC(C)C(O)(O3)C(=O)C(=O)N3CCCCC3C(=O)O2)CCC1O (centres unmarked) [C7-isopropoxy-rapamycin, C7-isopropoxyrapamycin]
activation of FRBL2-Caspase-9 (293 cells): activated
cell death (loss of SeAP reporter) (293T cells): dose-dependent high efficacy cell death switch

Source: US20230065562A1, “DUAL CONTROLS FOR THERAPEUTIC CELL ACTIVATION OR ELIMINATION” (Bellicum Pharmaceuticals, Inc., priority 2015, published 2023)
